Legend:
[1] = tested on: A549 human lung cancer cell line; assay: MTT cell viability / cytotoxicity on A549; type: cell-based; conditions: for IC50: Homo sapiens, A549, A549 cell line, MTT, mean ± S.D. of three determinations
Experimental: (§1) In 75 cm^2 sterile plastic tissue culture flasks, the human lung adenocarcinoma A549 and the mouse fibroblast L929 cell lines were cultured in 90% RPMI (Sigma, Deisenhofen, Germany) media supplemented with 10% (v/v) FBS (Gibco, Paisley, UK) and adherent monolayers of penicillin/streptomycin (100 units/mL) from Gibco, Paisley, UK. These cells were cultured at 37 °C in an environment that was humidified and contained 5% CO2.
(§2) The MTT (3-(4,5-dimethylthiazol-2-yl)-2,5-diphenyltetrazolium bromide) method was applicated to assess the cell viability of L929, C6 and A549 cell lines against the tested compounds according to the reported data.[51] In 96-well plates with a flat bottom, the A549, C6, and L929 cells were cultivated at a density of 5 × 10^3 cells per well. […] After addition, they were incubated for a full day in culture wells. Following the incubation period, 20 μL of phosphate-buffered saline (PBS) (Gibco, Paisley, UK) containing 5 mg/mL MTT powder (Sigma-Aldrich, St. Louis, MO, USA) was added to each well. The medium was taken out of the plate and replaced with 100 μL of DMSO in each well to dissolve the dye. This was left for 2 to 4 h under the same conditions and then left for 10 min. At the conclusion of the procedure, purple formazan, the reduction product of the MTT agent, was formed by the mitochondrial dehydrogenase enzyme of intact cells. A microtiter plate reader (BioTek Plate Reader, Winooski, VT, USA) was used to measure the cells at 540 nm. Cell viability was measured as a percentage and contrasted with that of the cells in the control group. Half-maximal inhibitory concentration 50 (IC50) values were determined by repeating each concentration in three wells and identifying the drug concentrations that decreased the absorbance to 50% of control values. The medium control served as the basis for calculating the percentage of viable cells.

C6 rat glioma cell line = assay: MTT cell viability / cytotoxicity on C6; type: cell-based; conditions: mean ± S.D. of three determinations
Experimental: as §2

[2] = tested on: L929 murine fibroblast cell line; assay: MTT cell viability / cytotoxicity on L929 (healthy cells); type: cell-based, mouse; conditions: mean ± S.D. of three determinations
Experimental: as §1, §2

A549 cells [3] = assay: Early/late apoptosis by Annexin V-FITC/PI flow cytometry; type: cell-based, human; conditions: A549, IC50 dose, 24 h incubation
Experimental: Phosphatidylserine externalization, a marker of early apoptosis, was assessed using the FITC Annexin V apoptosis detection kit (BD Pharmingen, San Jose, CA, USA) on a BD FACSAria flow cytometer. Following their collection, the A549 and L929 cells were twice washed in ice-cold PBS before being resuspended in 100 μL of binding buffer. The cells were treated with a volume of 5 μL (5 μg/mL) of Annexin V-FITC and PI, and they were incubated for 15 min at room temperature (20–25 °C) in the dark. Following that, 400 μL of binding buffer was added to the combination samples, and FACSDiva version 6.1.1 was used to analyze the samples on a BD FACSAria flow cytometer.

caspase-3 = assay: Caspase-3 activation in A549 cells; type: cell-based, human; conditions: A549, IC50 of the compounds, 24 h
Experimental: The Spectrofluorometric Caspase-3 Assay kit (BD Pharmingen, Franklin Lakes, NJ) was used to assess the activation of caspase-3. The purpose of the kit was to measure the early indicator of cells going through apoptosis, known as caspase-3 or the DEVD-cleaving activity. First, 1 × 10^6 cells/mL of cells were resuspended in cold cell lysis buffer, rinsed with PBS, and then allowed to sit on ice for 30 min. […] In each reaction, a well containing 0.2 mL of 1 x HEPES buffer was filled with […] of reconstituted AcDEVD-AMC, a synthetic tetrapeptide fluorogenic substrate for caspase-3 activity. Each reaction/well received 20 μL of cell lysate. The reaction mixtures were incubated at 37 °C for 1 h. Using a microplate reader (Perkin-Elmer/Victor/X3) with an excitation wavelength of 380 nm and an emission wavelength of 460 nm, the amount of AMC released from Ac-DEVD-AMC was quantified. When compared with controls, apoptotic cell lysates containing active caspase-3 produced a significant emission. […] For all doses, duplicate wells were used. This experiment was performed according to Yurttaş et al.[52]

A549 cells [4] = assay: Mitochondrial membrane depolarization (JC-1, flow cytometry); type: cell-based, human; conditions: A549, IC50 concentration, 24 h
Experimental: Staining of cells with JC-1 was realized according to the manufacturer’s recommendations of BD, Pharmingen Flow cytometry kit. […] For this purpose, cells were seeded at an optimal density in six-well plates (not exceeding 1 × 10^6/mL cells). The cells were then incubated with the substances to be tested at the appropriate concentration and time. After the treatment, each cell suspension was taken into a 15 mL polystyrene centrifuge tube and the cells were centrifuged at 400g for 5 min and removed from the supernatant. 0.5 mL of a freshly prepared working solution was added to each pellet, and the solution was vortexed. The test cells were soaked in a JC-1 working solution at 37 °C for 10–15 min, and the cells were washed twice. In the first wash, 2 mL of 1X assay buffer was added and the cells were suspended sensitively. Then, the cells were centrifuged at 400g for 5 min and the supernatant was removed, carefully. In the second wash, 1 mL of 1X assay buffer was added and vortexed. After the cells were centrifuged at 400g for 5 min, each cell pellet was suspended in 0.5 mL 1X assay buffer and vortexed. Finally, the cell was analyzed by a flow cytometer.

A549 cells [5] = assay: Cell cycle analysis by flow cytometry; type: cell-based, human; conditions: A549, 24 h incubation
Experimental: Following a 24 h incubation period with the compounds, a cell cycle analysis measurement methodology was implemented in compliance with the manufacturer’s instructions for A549 cells (BD, Biosciences). Next, the cells were immersed in citrate buffer for a short while. At room temperature, the cells were centrifuged for 5 min at 400 g. After the supernatant was decanted, 250 μL of solution A was added to the pellet, and it was allowed to sit at room temperature for 10 min. Solution B (200 μL) was then added, carefully mixed, and incubated at room temperature for 10 min. Solution C (200 μL) was then added. It was gently mixed, allowed to stand at 4 °C for 10 min in the dark, and then examined using BD Bioscience’s MODFID software on a flow cytometer. This method was applied in our previous study.[54]

MMP-9 enzyme = target: T1, MMP-9 enzyme (Homo sapiens, UniProt P14780); assay: MMP-9 colorimetric inhibition assay; type: biochemical; conditions: for inhibition at 100 µg/mL: at 100 μg/mL
T1 construct: purchased EnzoLife Sciences Inc. (Farmingdale, New York, NY, USA)
T1 sequence (P14780 107-444 limits assumed): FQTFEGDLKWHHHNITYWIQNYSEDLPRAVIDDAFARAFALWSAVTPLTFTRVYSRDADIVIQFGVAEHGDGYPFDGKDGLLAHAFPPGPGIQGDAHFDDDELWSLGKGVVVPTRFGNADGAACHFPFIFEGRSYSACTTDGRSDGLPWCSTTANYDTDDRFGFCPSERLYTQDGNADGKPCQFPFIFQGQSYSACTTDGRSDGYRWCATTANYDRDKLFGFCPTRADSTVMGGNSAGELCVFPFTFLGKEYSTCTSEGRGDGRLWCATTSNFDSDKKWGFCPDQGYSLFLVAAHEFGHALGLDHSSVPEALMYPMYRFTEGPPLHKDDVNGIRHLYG
Description: As described in our previous study,[36] the method was applied in exactly the same manner. EnzoLife Sciences Inc. provided MMP-9 colorimetric kits (Farmingdale, New York, NY, USA). The MMP Colorimetric Drug Discovery Kits are a comprehensive test technique that uses a thiopeptide (Ac-PLG-[2-mercapto-4-methyl-pentanoyl]-LG-OC2H5) as a chromogenic substrate to screen MMP inhibitors. Using a microplate reader (BioTek, PowerWave, Gen5 software, Winooski, VT, USA) at room temperature, the UV absorbance was measured at 412 nm. NNGH was employed as an inhibitor of control.

[6] = Mus musculus, L929, L929 healthy cell line

| Compound | IC50 [1] | IC50 (C6 rat glioma cell line) | IC50 [2, 6] | Q1: necrotic cells (A549 cells [3]) | Q2: late apoptotic cells (A549 cells [3]) | Q3: viable cells (A549 cells [3]) | Q4: early apoptotic cells (A549 cells [3]) | % (+): caspase-3 activity positive cells (caspase-3) | % (−): caspase-3 activity negative cells (caspase-3) | mitochondrial membrane depolarization % (A549 cells [4]) | mitochondrial membrane polarization % (A549 cells [4]) | % S (A549 cells [5]) | G0/G1% (A549 cells [5]) | G2/M % (A549 cells [5]) | IC50 (MMP-9 enzyme) | inhibition at 100 µg/mL (MMP-9 enzyme) | melting point | also measured |
| --- | --- | --- | --- | --- | --- | --- | --- | --- | --- | --- | --- | --- | --- | --- | --- | --- | --- | --- |
| CC(=O)Nc1ccccc1OCc1nnc(SCC(=O)Nc2nc3ccc(F)cc3s2)o1 [Compound 4f, 2-[(5-((2-Acetamidophenoxy)methyl)-1,3,4-oxadiazol-2-yl)thio]-N-(6-fluorobenzothiazol-2-yl)acetamide] | 6.62 ± 0.32 µM | 13 ± 3.72 µM | 19.4 ± 0.89 µM | 26.25% | 6.7% | 58.53% | 8.51% | 3.4% | 97.1% | 13.03% | 85.97% | 0.0% | 63.53% | 36.47% | 24.5 ± 2.12 µM | > 75% | 207 to 209 °C |  |
| CC(=O)Nc1ccccc1OCc1nnc(SCC(=O)Nc2ccccc2)o1 [Compound 4h, 2-[(5-((2-Acetamidophenoxy)methyl)-1,3,4-oxadiazol-2-yl)thio]-N-phenylacetamide] | < 0.14 µM | > 1000 µM | 31.4 ± 1.76 µM | 26.94% | 7.28% | 53.94% | 11.84% | 2.7% | 97.5% | 8.75% | 90.74% | 0.0% | 89.66% | 10.34% | 1.65 ± 0.21 µM | > 75% | 188 to 191 °C | Q2 + Q4: early and late apoptotic cells (A549 cells [3]): 19.20% |
| CC(=O)Nc1ccccc1OCc1nnc(SCC(=O)Nc2ccc([N+](=O)[O-])cc2)o1 [Compound 4j, 2-[(5-((2-Acetamidophenoxy)methyl)-1,3,4-oxadiazol-2-yl)thio]-N-(4-nitrophenyl)acetamide] | < 8.8 µM | > 1000 µM | < 7.96 µM |  |  |  |  |  |  |  |  |  |  |  | 22 ± 1.41 µM | > 50% | 210 to 215 °C | inhibition of A549 at the lowest concentration tested ([1]; A549, MTT, lowest concentration tested): greater than 50%; SI (L929/A549) ([1]; selectivity index = IC50 on normal cells/IC50 on cancer cells): <1; IC50 ([2]; L929 healthy cell line): < 8.8 µM |
